Measurements taken from patent publication US10245261B2, “Substituted indol-5-ol derivatives and their therapeutic applications” (NantBioScience, Inc., priority 2013, dated 2019).

Columns and labels:
MV4.11 = assay: CellTiterBlue cell growth inhibition; assay type: cell-based; settings: Homo sapiens; MV4.11, 72 hours
Procedure: (§1) This example illustrated the proliferating cell growth inhibition of selected compounds from this invention. To do this, the cells were seeded into fresh Iscove's growth medium at a density of 0.4e6 cells/ml and grown in log phase for 24 hr. Cells were then resuspended in their fresh respective growth media at 0.1e^6 cells/ml and plated into 384 well black, clear-bottom microplates at 36 ul/well. Test compounds and controls were initially dissolved in DMSO at the desired concentration, then serially diluted to the assay buffer. These solutions were added and cells were incubated for 72 hours at 37° C. CellTiterBlue (Promega cat# G7572) was added on the Beckman FX. Plates were returned to the 37° C. CO2 incubator for 4 hr and then fluorescence was determined on the Victor plate reader. Data were processed using Microsoft Excel, and GI50 values were generated using Prism (GraphPad Software, San Diego, Calif.).

KU812 = assay: CellTiterBlue cell growth inhibition; assay type: cell-based; settings: Homo sapiens; KU812, 72 hours
Procedure: as §1

RS4.11 = assay: CellTiterBlue cell growth inhibition; assay type: cell-based; settings: Homo sapiens; RS4.11, 72 hours
Procedure: as §1

K562 = assay: CellTiterBlue cell growth inhibition; assay type: cell-based; settings: Homo sapiens; K562, 72 hours
Procedure: as §1

Flt3(h) = target: T1, Flt3(h) (Homo sapiens, UniProt P36888); assay: KinaseProfiler kinase assay; assay type: biochemical
T1 sequence (P36888 27-993): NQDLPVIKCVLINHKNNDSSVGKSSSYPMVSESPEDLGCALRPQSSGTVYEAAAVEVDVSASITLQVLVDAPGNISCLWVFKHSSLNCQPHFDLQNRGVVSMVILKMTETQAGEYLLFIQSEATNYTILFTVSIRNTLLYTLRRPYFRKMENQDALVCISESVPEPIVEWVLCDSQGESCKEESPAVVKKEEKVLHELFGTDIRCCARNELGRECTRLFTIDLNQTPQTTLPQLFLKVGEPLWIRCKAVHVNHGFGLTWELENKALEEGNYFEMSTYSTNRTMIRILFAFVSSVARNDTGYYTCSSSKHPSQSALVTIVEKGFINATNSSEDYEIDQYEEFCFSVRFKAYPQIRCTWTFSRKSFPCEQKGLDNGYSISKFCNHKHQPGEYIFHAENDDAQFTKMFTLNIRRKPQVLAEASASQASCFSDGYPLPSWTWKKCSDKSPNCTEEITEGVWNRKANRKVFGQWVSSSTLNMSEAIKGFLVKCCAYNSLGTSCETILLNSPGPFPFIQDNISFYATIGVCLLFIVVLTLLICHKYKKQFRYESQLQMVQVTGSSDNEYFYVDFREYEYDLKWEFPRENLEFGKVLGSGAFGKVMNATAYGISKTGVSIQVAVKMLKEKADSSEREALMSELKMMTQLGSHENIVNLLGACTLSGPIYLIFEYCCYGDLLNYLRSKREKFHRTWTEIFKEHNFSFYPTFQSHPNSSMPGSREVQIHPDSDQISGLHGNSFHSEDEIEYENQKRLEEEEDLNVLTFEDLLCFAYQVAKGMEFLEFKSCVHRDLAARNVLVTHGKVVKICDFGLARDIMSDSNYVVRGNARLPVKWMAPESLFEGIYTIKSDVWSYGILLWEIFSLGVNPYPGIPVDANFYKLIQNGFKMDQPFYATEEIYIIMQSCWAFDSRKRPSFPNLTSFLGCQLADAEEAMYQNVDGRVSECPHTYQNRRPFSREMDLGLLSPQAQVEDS
Procedure: (§2) This example tests the inhibitory properties of representative compounds of the invention in c-Src kinase, Aurora-A kinase, Flt3 kinase, Ret kinase and TrkA Kinase assays (see, Daniele Fancelli et al, J. Med. Chem., 2006, 49 (24), pp 7247-7251). The KinaseProfiler™ Service Assay Protocols (Millipore) was used to test the kinase inhibiting activity of novel compounds from this invention. To do this, the buffer composition was as: 20 mM MOPS, 1 mM EDTA, 0.01% Brij-35, 5% Glycerol, 0.1% β-mercaptoethanol, 1 mg/mL BSA. Test compounds were initially dissolved in DMSO at the desired concentration, then serially diluted to the kinase assay buffer. In a final reaction volume of 25 μL, Aurora-A(h) (5-10 mU) is incubated with 8 mM MOPS pH 7.0, 0.2 mM EDTA, 200 μM LRRASLG (Kemptide), 10 mM MgAcetate and [γ^33P-ATP]. The reaction was initiated by the addition of the MgATP mix. After incubation for 40 minute at room temperature, the reaction was stopped by addition of 5 μL of a 3% phosphoric acid solution. 10 μL of the reaction was then spotted onto a P30 filtermat and washed three times for 5 minutes in 50 mM phosphoric acid and once in methanol prior to drying and scintillation counting. Wells containing substrate but no kinase and wells containing a phosphopeptide control were used to set 0% and 100% phosphorylation value, respectively.
(§3) The Kinase Hotspot℠ kinase assay was also used to test the compounds for IC50 or % inhibitions (Reaction Biology Corp.). Inhibitory IC50 values were determined by titration of compound at the optimal kinase concentration (Kinase EC50).

Aurora-A(h) = target: T2, Aurora-A(h) (Homo sapiens, UniProt O14965); assay: KinaseProfiler kinase assay; assay type: biochemical; settings: for inhibition at 1 µM: read-out: % Inhibition @1 μM Auroro-A
T2 sequence (O14965 1-403): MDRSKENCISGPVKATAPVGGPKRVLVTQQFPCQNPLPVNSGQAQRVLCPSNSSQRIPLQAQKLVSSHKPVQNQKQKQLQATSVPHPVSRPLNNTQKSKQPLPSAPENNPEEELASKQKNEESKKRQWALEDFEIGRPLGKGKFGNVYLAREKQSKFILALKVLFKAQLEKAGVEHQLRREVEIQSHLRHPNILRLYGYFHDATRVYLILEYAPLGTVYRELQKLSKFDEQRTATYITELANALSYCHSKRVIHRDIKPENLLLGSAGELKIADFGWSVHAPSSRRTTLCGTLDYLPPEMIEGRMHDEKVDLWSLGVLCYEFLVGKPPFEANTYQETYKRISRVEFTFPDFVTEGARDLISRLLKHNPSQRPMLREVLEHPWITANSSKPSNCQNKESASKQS
Procedure: as §2, §3

cSRC(h) = cSRC(h) (Homo sapiens, UniProt P12931); assay: KinaseProfiler kinase assay; assay type: biochemical
Procedure: as §2, §3

Ret(h) = Ret(h) (Homo sapiens, UniProt P07949); assay: KinaseProfiler kinase assay; assay type: biochemical
Procedure: as §2, §3

[1] = test system: human MIAPaCa-2 pancreatic carcinoma xenograft; assay: Pancreatic carcinoma xenograft in athymic nude mice; assay type: in vivo, mouse; settings: MIAPaCa-2 xenograft, nude mice, single agent
Procedure: The objective of the third study was to evaluate antitumor activities of novel multiple-kinase inhibitor NTW-3475 in human MIAPaCa-2 pancreatic carcinoma xenograft in athymic nude-Faxn1 mice.
Four animals were randomly assigned to study groups. Each animal was weighed, and then injected subcutaneously in the left and right flank area with 0.1 ml of 5.0×10^7 MIAPaCa-2 cells per mL.
Each test or control animal was on a 5-day on, two-day off for two cycles treatment schedule with negative control vehicle, positive control Abraxane at 20 mg/kg or 25, 50 mg/kg of NTW-3475. Tumor growth was measured with a digital hand held caliper twice weekly (once tumor emerges) prior to the first dosing and then two to three times weekly until euthanized.
The objective of the third study was to evaluate antitumor activities of novel multiple-kinase inhibitor Compound 10, 11, 12, 53, 68, 82, 83, 88, and 90 in human MIAPaCa-2 pancreatic carcinoma xenograft in athymic nude-Faxn1 mice.
Each test or control animal was on a 5-day on, two-day off for three cycles treatment schedule with negative control vehicle or 40 mg/kg of Compound 10, 11, 12, 53, 68, 82, 83, 88 and 90. Tumor growth was measured with a digital hand held caliper twice weekly (once tumor emerges) prior to the first dosing and then two to three times weekly until euthanized.

KDR(h) = KDR(h) (Homo sapiens, UniProt P35968); assay: KinaseProfiler kinase assay; assay type: biochemical
Abl(h) = Abl(h) (Homo sapiens, UniProt P00519); assay: KinaseProfiler kinase assay; assay type: biochemical
Abl(h), sequence (P00519 whole entry): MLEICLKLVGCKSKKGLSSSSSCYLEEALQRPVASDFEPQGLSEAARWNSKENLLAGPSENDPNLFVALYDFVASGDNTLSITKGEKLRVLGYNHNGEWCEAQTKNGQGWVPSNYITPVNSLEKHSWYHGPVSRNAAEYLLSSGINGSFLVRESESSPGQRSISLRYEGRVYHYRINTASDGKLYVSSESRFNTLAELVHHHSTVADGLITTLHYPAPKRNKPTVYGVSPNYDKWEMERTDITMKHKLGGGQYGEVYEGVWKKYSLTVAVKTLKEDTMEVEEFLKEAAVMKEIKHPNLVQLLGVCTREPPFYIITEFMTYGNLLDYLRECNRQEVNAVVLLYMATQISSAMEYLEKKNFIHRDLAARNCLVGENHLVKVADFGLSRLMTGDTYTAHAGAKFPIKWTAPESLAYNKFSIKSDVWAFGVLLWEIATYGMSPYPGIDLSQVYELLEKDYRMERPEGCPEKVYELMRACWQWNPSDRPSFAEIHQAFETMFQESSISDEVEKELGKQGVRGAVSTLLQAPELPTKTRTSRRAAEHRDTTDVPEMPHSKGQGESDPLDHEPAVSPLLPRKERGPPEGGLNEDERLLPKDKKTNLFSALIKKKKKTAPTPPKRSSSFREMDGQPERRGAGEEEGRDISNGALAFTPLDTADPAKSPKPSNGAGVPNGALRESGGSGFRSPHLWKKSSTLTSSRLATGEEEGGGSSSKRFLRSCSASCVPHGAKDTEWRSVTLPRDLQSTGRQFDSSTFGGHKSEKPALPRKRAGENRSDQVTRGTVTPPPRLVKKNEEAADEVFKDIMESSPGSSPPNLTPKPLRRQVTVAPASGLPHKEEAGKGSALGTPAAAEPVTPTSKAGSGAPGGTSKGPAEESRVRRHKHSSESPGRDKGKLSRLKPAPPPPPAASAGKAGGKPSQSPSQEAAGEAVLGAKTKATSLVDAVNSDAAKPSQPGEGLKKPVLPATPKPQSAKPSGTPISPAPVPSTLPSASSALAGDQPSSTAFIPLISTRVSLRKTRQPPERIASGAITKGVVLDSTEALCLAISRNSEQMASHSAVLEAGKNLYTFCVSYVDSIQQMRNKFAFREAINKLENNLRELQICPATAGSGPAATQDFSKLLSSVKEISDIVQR

cSRC(h), sequence (P12931 whole entry): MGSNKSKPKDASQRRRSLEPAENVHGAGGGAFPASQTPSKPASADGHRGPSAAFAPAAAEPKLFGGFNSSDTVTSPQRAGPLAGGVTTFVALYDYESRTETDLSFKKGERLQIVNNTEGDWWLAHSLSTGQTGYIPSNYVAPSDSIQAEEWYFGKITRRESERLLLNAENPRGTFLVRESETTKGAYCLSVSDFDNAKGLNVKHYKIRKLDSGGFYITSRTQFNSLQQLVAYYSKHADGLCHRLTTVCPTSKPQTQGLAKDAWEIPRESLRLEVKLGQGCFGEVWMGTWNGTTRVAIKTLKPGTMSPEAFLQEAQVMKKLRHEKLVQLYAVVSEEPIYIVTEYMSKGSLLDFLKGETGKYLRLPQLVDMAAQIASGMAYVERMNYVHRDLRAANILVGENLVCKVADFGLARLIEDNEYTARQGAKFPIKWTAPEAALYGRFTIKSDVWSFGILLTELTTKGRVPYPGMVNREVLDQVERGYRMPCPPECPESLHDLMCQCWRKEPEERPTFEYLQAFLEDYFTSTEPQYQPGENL
Ret(h), sequence (P07949 29-1114): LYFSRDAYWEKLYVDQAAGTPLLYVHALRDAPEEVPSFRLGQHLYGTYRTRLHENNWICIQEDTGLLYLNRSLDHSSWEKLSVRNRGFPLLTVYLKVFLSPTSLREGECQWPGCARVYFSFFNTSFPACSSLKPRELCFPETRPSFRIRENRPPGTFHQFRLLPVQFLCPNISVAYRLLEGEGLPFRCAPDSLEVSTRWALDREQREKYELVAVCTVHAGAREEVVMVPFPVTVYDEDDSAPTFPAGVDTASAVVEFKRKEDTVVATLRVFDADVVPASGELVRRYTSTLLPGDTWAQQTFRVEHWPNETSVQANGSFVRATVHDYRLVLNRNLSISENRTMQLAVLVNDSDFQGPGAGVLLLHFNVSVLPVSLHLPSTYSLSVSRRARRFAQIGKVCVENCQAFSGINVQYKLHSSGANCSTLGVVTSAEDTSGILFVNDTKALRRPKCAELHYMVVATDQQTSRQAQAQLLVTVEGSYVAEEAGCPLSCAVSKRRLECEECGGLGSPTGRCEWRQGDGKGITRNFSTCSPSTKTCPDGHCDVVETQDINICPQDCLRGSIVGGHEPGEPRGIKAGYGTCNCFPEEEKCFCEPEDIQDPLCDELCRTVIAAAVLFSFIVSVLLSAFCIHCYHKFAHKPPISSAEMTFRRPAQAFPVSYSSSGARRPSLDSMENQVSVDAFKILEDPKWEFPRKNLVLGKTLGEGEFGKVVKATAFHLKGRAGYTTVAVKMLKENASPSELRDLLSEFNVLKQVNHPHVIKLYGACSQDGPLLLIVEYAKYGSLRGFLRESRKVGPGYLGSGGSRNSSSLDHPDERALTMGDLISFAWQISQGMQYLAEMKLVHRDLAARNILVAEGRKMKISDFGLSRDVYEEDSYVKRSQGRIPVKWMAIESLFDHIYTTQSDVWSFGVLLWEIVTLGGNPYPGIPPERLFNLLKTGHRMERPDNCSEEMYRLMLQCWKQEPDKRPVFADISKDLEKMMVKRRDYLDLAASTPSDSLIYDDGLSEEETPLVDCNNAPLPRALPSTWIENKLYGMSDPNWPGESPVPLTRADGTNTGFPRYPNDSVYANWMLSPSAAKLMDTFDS
KDR(h), sequence (P35968 20-1356): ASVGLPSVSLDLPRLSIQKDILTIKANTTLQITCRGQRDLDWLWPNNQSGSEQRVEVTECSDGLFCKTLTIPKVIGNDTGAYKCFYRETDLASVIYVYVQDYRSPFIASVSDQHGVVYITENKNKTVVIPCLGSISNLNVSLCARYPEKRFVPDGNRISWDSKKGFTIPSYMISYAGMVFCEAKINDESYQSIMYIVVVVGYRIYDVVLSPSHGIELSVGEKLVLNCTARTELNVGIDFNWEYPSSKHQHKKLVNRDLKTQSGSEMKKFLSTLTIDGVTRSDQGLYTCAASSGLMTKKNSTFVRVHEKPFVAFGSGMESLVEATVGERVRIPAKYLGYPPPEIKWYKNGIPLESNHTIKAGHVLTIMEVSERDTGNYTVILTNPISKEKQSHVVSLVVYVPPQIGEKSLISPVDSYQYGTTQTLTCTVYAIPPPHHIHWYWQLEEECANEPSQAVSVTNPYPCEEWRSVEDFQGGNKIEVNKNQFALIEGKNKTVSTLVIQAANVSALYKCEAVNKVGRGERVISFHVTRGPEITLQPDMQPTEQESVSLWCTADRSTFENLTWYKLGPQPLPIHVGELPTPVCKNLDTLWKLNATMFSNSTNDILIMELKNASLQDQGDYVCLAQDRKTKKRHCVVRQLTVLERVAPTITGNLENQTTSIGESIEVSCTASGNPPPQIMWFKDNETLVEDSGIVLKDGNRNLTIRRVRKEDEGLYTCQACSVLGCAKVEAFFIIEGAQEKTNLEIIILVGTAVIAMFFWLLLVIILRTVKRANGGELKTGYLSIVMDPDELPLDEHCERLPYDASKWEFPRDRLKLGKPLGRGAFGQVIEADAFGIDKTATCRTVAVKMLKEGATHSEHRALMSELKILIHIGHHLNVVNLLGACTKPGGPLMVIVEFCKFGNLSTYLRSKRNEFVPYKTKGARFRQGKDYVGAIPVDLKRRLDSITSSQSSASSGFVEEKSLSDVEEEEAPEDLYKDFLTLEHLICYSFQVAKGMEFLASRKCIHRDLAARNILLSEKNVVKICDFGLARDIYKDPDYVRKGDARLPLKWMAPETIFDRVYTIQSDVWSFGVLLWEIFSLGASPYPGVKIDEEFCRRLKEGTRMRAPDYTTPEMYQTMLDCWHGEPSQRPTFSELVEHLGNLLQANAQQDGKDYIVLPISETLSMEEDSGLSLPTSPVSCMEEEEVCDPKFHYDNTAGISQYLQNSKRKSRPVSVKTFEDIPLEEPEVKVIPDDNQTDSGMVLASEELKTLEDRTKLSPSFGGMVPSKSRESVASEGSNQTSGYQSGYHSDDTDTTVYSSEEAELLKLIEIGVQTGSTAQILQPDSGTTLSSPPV

Row | SMILES | GI50 (MV4.11) [nM] | GI50 (KU812) [nM] | GI50 (RS4.11) [nM] | GI50 (K562) [nM] | inhibition at 1 µM (Flt3(h)) [%] | IC50 (Flt3(h); read-out: IC50 (nM) Flt3 (h)) [nM] | inhibition at 1 µM (Aurora-A(h)) [%] | IC50 (Aurora-A(h); read-out: IC50 (nM) Auroro-A (h)) [nM] | inhibition at 1 µM (cSRC(h)) [%] | IC50 (cSRC(h); read-out: IC50 (nM) cSrc (h)) [nM] | inhibition at 1 µM (Ret(h)) [%] | IC50 (Ret(h); read-out: IC50 (nM) Ret (h)) [nM] | anti-tumor effect [1] | inhibition at 1 µM (KDR(h)) [%] | inhibition at 1 µM (Abl(h)) [%] | IC50 (Abl(h); read-out: IC50 (nM) Abl (h)) [nM]
1 | Cc1cc2c(F)c(Oc3nc(Nc4cc(C5CC5)[nH]n4)cc(N4CCN(CCO)CC4)n3)ccc2[nH]1 [Compound 12] | 0.41 | 0.27 | 3.22 | 0.28 | 100 | 0.3 | 100 | 2 | 100 | 2 | 101 | 1 | strong anti-tumor effect | 96 | 112 | 0.5
2 | Cc1cc2c(F)c(Oc3nc(Nc4cc(C5CC5)[nH]n4)cc(N4CCN(CCO)CC4)n3)cc(F)c2[nH]1 [Compound 83] | 0.4 | 0.67 | 3.3 | 0.55 | 99 |  | 100 |  | 99 |  | 101 |  | strong anti-tumor effect | 96 | 110 | 
3 | Cc1cc2c(F)c(Oc3nc(Nc4cc(C5CC5)[nH]n4)cc(N4CCC(F)CC4)n3)ccc2[nH]1 [Compound 22] |  |  |  |  | 100 |  | 101 |  | 100 |  | 101 |  |  | 92 | 108 | 
4 | CCN1CCN(c2cc(Nc3cc(C4CC4)[nH]n3)nc(Oc3ccc4[nH]c(C)cc4c3F)n2)CC1 [Compound 31] |  |  |  |  | 101 |  | 101 |  | 104 |  | 102 |  |  | 91 | 115 | 
5 | C/C=C/c1cc(Nc2cc(N3CCN(S(C)(=O)=O)CC3)nc(Oc3cc(F)c4[nH]c(C)cc4c3F)n2)n[nH]1 [Compound 98] |  |  |  |  | 100 |  | 98 |  | 100 |  | 102 |  |  | 96 | 111 | 
6 | C/C=C/c1cc(Nc2cc(N3CCN(C(C)=O)CC3)nc(Oc3ccc4[nH]c(C)cc4c3F)n2)n[nH]1 [Compound 56] |  |  |  |  | 99 |  | 99 |  | 100 |  | 101 |  |  | 96 | 111 | 
7 | Cc1cc2c(F)c(Oc3nc(Nc4cc(C5CC5)[nH]n4)cc(N4CCN(c5ccccn5)CC4)n3)ccc2[nH]1 [Compound 25] |  |  |  |  | 100 |  | 101 |  | 100 |  | 101 |  |  | 93 | 108 | 
8 | C/C=C/c1cc(Nc2cc(N3CCN(CC)CC3)nc(Oc3cc(F)c4[nH]c(C)cc4c3F)n2)n[nH]1 [Compound 99] |  |  |  |  | 102 |  | 101 |  | 103 |  | 102 |  |  | 91 | 113 | 
9 | Cc1cc2c(F)c(Oc3nc(Nc4cc(C5CC5)[nH]n4)cc(N4CCN(CCF)CC4)n3)ccc2[nH]1 [Compound 45] |  |  |  |  | 101 |  | 99 |  | 107 |  | 102 |  |  | 95 | 107 | 
10 | C/C=C/c1cc(Nc2cc(N3CCOCC3)nc(Oc3ccc4c(cc(C)n4C)c3F)n2)n[nH]1 [Compound 121] |  |  |  |  | 102 |  | 91 |  | 104 |  | 102 |  |  | 92 | 116 | 
11 | Cc1cc2c(F)c(Oc3nc(Nc4cc(C5CC5)[nH]n4)cc(N4CCNC(CO)C4)n3)ccc2[nH]1 (stereo not drawn) [Compound 43] |  |  |  |  | 99 |  | 87 |  | 101 |  | 102 |  |  | 95 | 111 | 
12 | Cc1cc2c(F)c(Oc3nc(Nc4cc(C5CC5)[nH]n4)cc(N4CCNC(=O)C4)n3)ccc2[nH]1 [Compound 19] |  |  |  |  | 99 |  | 100 |  | 99 |  | 100 |  |  | 93 | 108 | 
13 | Cc1cc2c(F)c(Oc3nc(Nc4cc(C5CC5)[nH]n4)cc(N4CCOCC4)n3)ccc2n1C [Compound 123] |  |  |  |  | 101 |  | 100 |  | 104 |  | 102 |  |  | 88 | 114 | 
